According to ChEMBL document CHEMBL3885861, “Open TG-GATES”:

Species on record: Rattus norvegicus
Test: Open TG-GATES - Regimen: Daily Repeat
Assay type: toxicity, organism-based, Sprague-Dawley
Design: regimen Daily Repeat, gender Male, age 6 weeks
Conditions: in vivo, po, 0 mg/kg, route gavage, dose level Control; for APTT / Bas / Eos / Fbg / Hb / Ht / Lym / MCH / MCHC / MCV / Mono / Neu / PT / Plat / RBC / Ret / WBC: tissue Blood; for KIDNEY_L / KIDNEY_R / KIDNEY_TOTAL: tissue Kidney; for LIVER: tissue Liver; for A/G / ALP / ALT / AST / BUN / CRE / Ca / Cl / DBIL / GLC / IP / K / LDH / Na / PL / RALB / TBIL / TC / TG / TP / gamma-GTP: tissue Plasma

Work on `CCCNC(=O)NS(=O)(=O)c1ccc(Cl)cc1` [CHLORPROPAMIDE] yielded a TERMINAL_BW (72 h, time 3 day) of 215.2 g, an APTT (72 h, time 3 day) of 17.7 s and a Bas (72 h, time 3 day) of 0.2%. It also gave an Eos (72 h, time 3 day) of 1%, a Fbg (72 h, time 3 day) of 289.2 mg/dL and a Hb (72 h, time 3 day) of 13.2 g/dL. It also gave a Ht (72 h, time 3 day) of 40.3%, a Lym (72 h, time 3 day) of 78% and an MCH (72 h, time 3 day) of 21.8 pg. The MCHC (72 h, time 3 day) was 32.8%, the MCV (72 h, time 3 day) was 66.6 fL and the Mono (72 h, time 3 day) was 4%. It also gave a Neu (72 h, time 3 day) of 16%, a PT (72 h, time 3 day) of 15.4 s and a Plat (72 h, time 3 day) of 120.9 x10_4/uL. It also gave an RBC (72 h, time 3 day) of 605.6 x10_4/ul, a Ret (72 h, time 3 day) of 7.5% and a WBC (72 h, time 3 day) of 84 x10_2/uL. For the same molecule, the KIDNEY_L (72 h, time 3 day) was 0.9 g, the KIDNEY_R (72 h, time 3 day) was 0.9 g and the KIDNEY_TOTAL (72 h, time 3 day) was 1.9 g. For the same molecule, the LIVER (72 h, time 3 day) was 10.4 g, the A/G (72 h, time 3 day) was 0.9 and the ALP (72 h, time 3 day) was 1591.4 IU/L. The ALT (72 h, time 3 day) was 48.2 IU/L, the AST (72 h, time 3 day) was 71.6 IU/L and the BUN (72 h, time 3 day) was 16.8 mg/dL. For the same molecule, the CRE (72 h, time 3 day) was 0.2 mg/dL, the Ca (72 h, time 3 day) was 10.8 mg/dL and the Cl (72 h, time 3 day) was 105 meq/L. It also gave a DBIL (72 h, time 3 day) of 0.01 mg/dL, a GLC (72 h, time 3 day) of 184 mg/dL and an IP (72 h, time 3 day) of 7.3 mg/dL. For the same molecule, the K (72 h, time 3 day) was 4 meq/L, the LDH (72 h, time 3 day) was 95.2 IU/L and the Na (72 h, time 3 day) was 142.2 meq/L. It also gave a PL (72 h, time 3 day) of 154.6 mg/dL, an RALB (72 h, time 3 day) of 2.7 g/dL and a TBIL (72 h, time 3 day) of 0.034 mg/dL. It also gave a TC (72 h, time 3 day) of 80.4 mg/dL, a TG (72 h, time 3 day) of 107.2 mg/dL and a TP (72 h, time 3 day) of 5.8 g/dL. For the same molecule, the gamma-GTP (72 h, time 3 day) was 1 IU/L, the TERMINAL_BW ([…], time 7 day) was 251.8 g and the TERMINAL_BW ([…], time 14 day) was 307.1 g. It also gave a TERMINAL_BW ([…], time 28 day) of 390.8 g, an APTT ([…], time 7 day) of 17.6 s and a Bas ([…], time 7 day) of 0.2%. The Eos ([…], time 7 day) was 1%, the Fbg ([…], time 7 day) was 294 mg/dL and the Hb ([…], time 7 day) was 13.7 g/dL. For the same molecule, the Ht ([…], time 7 day) was 40.9%, the Lym ([…], time 7 day) was 76.2% and the MCH ([…], time 7 day) was 21.6 pg. The MCHC ([…], time 7 day) was 33.4%, the MCV ([…], time 7 day) was 64.7 fL and the Mono ([…], time 7 day) was 2.6%. The Neu ([…], time 7 day) was 18.8%, the PT ([…], time 7 day) was 15.5 s and the Plat ([…], time 7 day) was 124.5 x10_4/uL. For the same molecule, the RBC ([…], time 7 day) was 632 x10_4/ul, the Ret ([…], time 7 day) was 6.4% and the WBC ([…], time 7 day) was 98.4 x10_2/uL. For the same molecule, the APTT ([…], time 14 day) was 18.5 s, the Bas ([…], time 14 day) was 0.2% and the Eos ([…], time 14 day) was 1%. For the same molecule, the Fbg ([…], time 14 day) was 274 mg/dL, the Hb ([…], time 14 day) was 14.5 g/dL and the Ht ([…], time 14 day) was 42.8%. It also gave a Lym ([…], time 14 day) of 78.4%, an MCH ([…], time 14 day) of 20.6 pg and an MCHC ([…], time 14 day) of 33.8%. For the same molecule, the MCV ([…], time 14 day) was 60.8 fL, the Mono ([…], time 14 day) was 2.4% and the Neu ([…], time 14 day) was 17.4%. The PT ([…], time 14 day) was 15.2 s, the Plat ([…], time 14 day) was 122.4 x10_4/uL and the RBC ([…], time 14 day) was 703.6 x10_4/ul. It also gave a Ret ([…], time 14 day) of 4.5%, a WBC ([…], time 14 day) of 115.5 x10_2/uL and an APTT ([…], time 28 day) of 20.6 s. For the same molecule, the Bas ([…], time 28 day) was 0.2%, the Eos ([…], time 28 day) was 1.2% and the Fbg ([…], time 28 day) was 259.6 mg/dL. It also gave a Hb ([…], time 28 day) of 14.9 g/dL, a Ht ([…], time 28 day) of 45.3% and a Lym ([…], time 28 day) of 78.8%. The MCH ([…], time 28 day) was 19 pg, the MCHC ([…], time 28 day) was 32.9% and the MCV ([…], time 28 day) was 57.5 fL. For the same molecule, the Mono ([…], time 28 day) was 2%, the Neu ([…], time 28 day) was 17% and the PT ([…], time 28 day) was 16.1 s. For the same molecule, the Plat ([…], time 28 day) was 94.8 x10_4/uL, the RBC ([…], time 28 day) was 787.4 x10_4/ul and the Ret ([…], time 28 day) was 2.2%. The WBC ([…], time 28 day) was 103.1 x10_2/uL, the KIDNEY_L ([…], time 7 day) was 1.1 g and the KIDNEY_R ([…], time 7 day) was 1.1 g. It also gave a KIDNEY_TOTAL ([…], time 7 day) of 2.2 g, a KIDNEY_L ([…], time 14 day) of 1.2 g and a KIDNEY_R ([…], time 14 day) of 1.2 g. The KIDNEY_TOTAL ([…], time 14 day) was 2.4 g, the KIDNEY_L ([…], time 28 day) was 1.4 g and the KIDNEY_R ([…], time 28 day) was 1.4 g. The KIDNEY_TOTAL ([…], time 28 day) was 2.8 g, the LIVER ([…], time 7 day) was 11.6 g and the LIVER ([…], time 14 day) was 13.6 g. For the same molecule, the LIVER ([…], time 28 day) was 14.6 g, the A/G ([…], time 7 day) was 0.8 and the ALP ([…], time 7 day) was 1869.6 IU/L. The ALT ([…], time 7 day) was 43.2 IU/L, the AST ([…], time 7 day) was 69.4 IU/L and the BUN ([…], time 7 day) was 15.4 mg/dL. The CRE ([…], time 7 day) was 0.2 mg/dL, the Ca ([…], time 7 day) was 10.9 mg/dL and the Cl ([…], time 7 day) was 106 meq/L. The DBIL ([…], time 7 day) was 0.014 mg/dL, the GLC ([…], time 7 day) was 185.6 mg/dL and the IP ([…], time 7 day) was 6.7 mg/dL. For the same molecule, the K ([…], time 7 day) was 4.2 meq/L, the LDH ([…], time 7 day) was 97.4 IU/L and the Na ([…], time 7 day) was 143 meq/L. It also gave a PL ([…], time 7 day) of 154.2 mg/dL, an RALB ([…], time 7 day) of 2.7 g/dL and a TBIL ([…], time 7 day) of 0.036 mg/dL. For the same molecule, the TC ([…], time 7 day) was 82 mg/dL, the TG ([…], time 7 day) was 105.2 mg/dL and the TP ([…], time 7 day) was 5.8 g/dL. It also gave a gamma-GTP ([…], time 7 day) of 1.2 IU/L, an A/G ([…], time 14 day) of 0.8 and an ALP ([…], time 14 day) of 1479.6 IU/L. It also gave an ALT ([…], time 14 day) of 44.6 IU/L, an AST ([…], time 14 day) of 68.6 IU/L and a BUN ([…], time 14 day) of 18.4 mg/dL. The CRE ([…], time 14 day) was 0.2 mg/dL, the Ca ([…], time 14 day) was 10.7 mg/dL and the Cl ([…], time 14 day) was 104.2 meq/L. It also gave a DBIL ([…], time 14 day) of 0.012 mg/dL, a GLC ([…], time 14 day) of 194.6 mg/dL and an IP ([…], time 14 day) of 7.3 mg/dL. It also gave a K ([…], time 14 day) of 4.1 meq/L, an LDH ([…], time 14 day) of 120 IU/L and a Na ([…], time 14 day) of 143.4 meq/L. The PL ([…], time 14 day) was 164 mg/dL, the RALB ([…], time 14 day) was 2.8 g/dL and the TBIL ([…], time 14 day) was 0.032 mg/dL. The TC ([…], time 14 day) was 77.8 mg/dL, the TG ([…], time 14 day) was 158.4 mg/dL and the TP ([…], time 14 day) was 6.1 g/dL. For the same molecule, the gamma-GTP ([…], time 14 day) was 1 IU/L, the A/G ([…], time 28 day) was 0.8 and the ALP ([…], time 28 day) was 1207 IU/L. For the same molecule, the ALT ([…], time 28 day) was 40.2 IU/L, the AST ([…], time 28 day) was 66.8 IU/L and the BUN ([…], time 28 day) was 16.2 mg/dL. For the same molecule, the CRE ([…], time 28 day) was 0.2 mg/dL, the Ca ([…], time 28 day) was 10.6 mg/dL and the Cl ([…], time 28 day) was 105.6 meq/L. It also gave a DBIL ([…], time 28 day) of 0.01 mg/dL, a GLC ([…], time 28 day) of 188.8 mg/dL and an IP ([…], time 28 day) of 6.5 mg/dL. The K ([…], time 28 day) was 3.8 meq/L, the LDH ([…], time 28 day) was 88.4 IU/L and the Na ([…], time 28 day) was 144 meq/L. It also gave a PL ([…], time 28 day) of 137.6 mg/dL, an RALB ([…], time 28 day) of 2.7 g/dL and a TBIL ([…], time 28 day) of 0.03 mg/dL. It also gave a TC ([…], time 28 day) of 65.8 mg/dL, a TG ([…], time 28 day) of 122.6 mg/dL and a TP ([…], time 28 day) of 6.1 g/dL. The gamma-GTP ([…], time 28 day) was 1 IU/L.
